Experimental data: patent US20100144733A1, “Compounds, compositions and methods comprising heteroaromatic derivatives” (Institute for OneWorld Health, priority 2008, published 2010)
pIC50: −log10 of the molar value. Read-outs that look alike come from different tables or passages of the source.

How the values were obtained:
CFTR = target: T1, CFTR (Homo sapiens, UniProt P13569); experiment: T84 assay (FLIPR membrane potential dye, forskolin/IBMX-stimulated CFTR channel activity); type: cell-based; settings: for IC50: imidazole and triazole-containing compounds (Tables 13, 14, 14′), read-out: IC50 (μM) (T84 assay)
T1 construct: endogenous in cells; host or cells: T84 human colonic cells (ECACC)
In short: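 Fluorescence from a membrane potential dye in T84 monolayers (HBSS with 10 mM Hepes) is followed each second for 150 s. Cells are exposed to test compound during the 45 min dye loading, then challenged with forskolin (10 μM) and IBMX (100 μM) to open CFTR. Inhibitors suppress the depolarization-driven fluorescence increase.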

[1] = system: cholera toxin (CTX) induced net fluid secretion in intestinal loops; experiment: animal or person; type: in vivo, mice (CD1 strain); settings: 4 hours; for inhibition in vivo at 100 µg/loop: Mus musculus, read-out: closed loop % inhibition @ 100 μg
CHO-CFTR cell line = target: T2, CHO-CFTR cell line (Homo sapiens, UniProt P13569); experiment: CHO-CFTR assay (FLIPR assay, same conditions as the T84 assay); type: cell-based; settings: imidazole and triazole-containing compounds
T2 construct: expressed in transfected cells; host or cells: CHO (CHO-CFTR cell line)

[2] = oxadiazole-containing compounds (a series), average of at least 2 runs unless annotated n = 1, read-out: IC50

T2 sequence (P13569 whole entry): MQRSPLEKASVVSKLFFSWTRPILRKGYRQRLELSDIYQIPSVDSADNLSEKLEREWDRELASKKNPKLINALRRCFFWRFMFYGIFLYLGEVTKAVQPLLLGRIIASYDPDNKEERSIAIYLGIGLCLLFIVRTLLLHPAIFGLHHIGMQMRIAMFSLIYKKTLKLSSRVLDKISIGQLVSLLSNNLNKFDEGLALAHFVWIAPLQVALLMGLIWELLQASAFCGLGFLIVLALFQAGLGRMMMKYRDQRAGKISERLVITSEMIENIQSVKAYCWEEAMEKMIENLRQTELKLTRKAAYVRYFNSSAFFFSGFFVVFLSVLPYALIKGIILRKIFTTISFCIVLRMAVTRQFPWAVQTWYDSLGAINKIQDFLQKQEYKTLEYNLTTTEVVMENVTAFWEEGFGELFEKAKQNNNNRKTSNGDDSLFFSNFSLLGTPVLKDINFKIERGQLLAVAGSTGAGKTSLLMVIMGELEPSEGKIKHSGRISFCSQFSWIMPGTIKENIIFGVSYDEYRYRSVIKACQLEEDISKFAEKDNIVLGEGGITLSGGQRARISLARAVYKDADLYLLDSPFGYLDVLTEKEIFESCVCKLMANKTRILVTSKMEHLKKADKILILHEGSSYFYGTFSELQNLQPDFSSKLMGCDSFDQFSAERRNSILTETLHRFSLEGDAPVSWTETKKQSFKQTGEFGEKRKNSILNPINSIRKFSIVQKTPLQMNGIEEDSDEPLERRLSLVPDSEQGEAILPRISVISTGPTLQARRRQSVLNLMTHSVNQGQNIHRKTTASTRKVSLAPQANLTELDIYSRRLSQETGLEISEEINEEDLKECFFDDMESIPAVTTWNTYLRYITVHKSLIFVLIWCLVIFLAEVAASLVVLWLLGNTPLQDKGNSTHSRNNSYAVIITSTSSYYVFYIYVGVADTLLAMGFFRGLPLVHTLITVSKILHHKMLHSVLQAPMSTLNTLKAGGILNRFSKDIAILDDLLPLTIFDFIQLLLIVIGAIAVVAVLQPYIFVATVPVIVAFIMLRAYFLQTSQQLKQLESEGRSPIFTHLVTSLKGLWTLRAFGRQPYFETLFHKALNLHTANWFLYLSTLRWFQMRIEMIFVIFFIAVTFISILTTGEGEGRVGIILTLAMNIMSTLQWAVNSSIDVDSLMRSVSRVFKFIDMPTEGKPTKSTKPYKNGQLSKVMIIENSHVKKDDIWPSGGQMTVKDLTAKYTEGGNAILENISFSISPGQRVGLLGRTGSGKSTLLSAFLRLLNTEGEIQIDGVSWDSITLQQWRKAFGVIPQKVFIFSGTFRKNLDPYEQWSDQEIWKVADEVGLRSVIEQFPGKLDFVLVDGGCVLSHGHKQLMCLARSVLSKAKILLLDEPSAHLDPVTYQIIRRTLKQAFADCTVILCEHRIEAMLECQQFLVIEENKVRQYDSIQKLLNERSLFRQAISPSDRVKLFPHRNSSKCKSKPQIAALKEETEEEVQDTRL
T1 sequence (P13569 whole entry): as above

| Compound | IC50 (CFTR) | IC50 (CHO-CFTR cell line) | further results |
| --- | --- | --- | --- |
| CC(C)(C)C(=O)CN(Cc1cccc(C(F)(F)F)c1)C(=O)c1nc(-c2cc(Br)c(O)c(Br)c2)no1 [1a, 3-(3,5-dibromo-4-hydroxyphenyl)-N-(3,3-dimethyl-2-oxobutyl)-N-(3-(trifluoromethyl)benzyl)-1,2,4-oxadiazole-5-carboxamide] |  |  | pIC50 (CFTR; [2]): 6.01; closed loop % inhibition @ 10 μg [1]: 69.4%; inhibition in vivo at 100 µg/loop [1]: 87.1% |
| CN(Cc1ccc(C(F)(F)F)cc1)C(=O)c1cc(-c2cc(Br)c(O)c(Br)c2)on1 [2g, 5-(3,5-Dibromo-4-hydroxyphenyl)-N-methyl-N-(4(trifluoromethyl)benzyl)isoxazole-3-carboxamide] |  |  | pIC50 (CFTR; isoxazole-containing compounds (Table 10, 10′, 11, 11′), read-out: IC50): 5.16; closed loop % inhibition @ 10 μg [1]: −66.3%; inhibition in vivo at 100 µg/loop [1]: 94.2% |
| O=C(NCc1ccc(Oc2ccccc2)cc1)c1nc(-c2cc(Br)c(O)c(Br)c2)no1 [13a, 3-(3,5-dibromo-4-hydroxyphenyl)-N-(4-phenoxybenzyl)-1,2,4-oxadiazole-5-carboxamide] |  |  | pIC50 (CFTR; [2]): 5.07; closed loop % inhibition @ 10 μg [1]: 88.6%; inhibition in vivo at 100 µg/loop [1]: 94.7% |
| Oc1c(Br)cc(-c2cnc(OCc3ccc(Cl)cc3)nn2)cc1Br [20e, 2,6-dibromo-4-(3-(4-chlorobenzyloxy)-1,2,4-triazin-6-yl)phenol] |  |  | closed loop % inhibition @ 100 μg [1]: 87.6% |
| Oc1c(Br)cc(-c2cnc(COc3cccc(Cl)c3Cl)nn2)cc1Br [30e, 2,6-dibromo-4(3-((2,3-dichlorophenoxy)methyl)-1,2,4-triazin-6-yl)phenol] |  |  | closed loop % inhibition @ 100 μg [1]: 94.4% |
| Oc1c(Cl)cc(-c2cnc(C(O)(c3ccccc3)c3ccccc3)nn2)cc1Cl [36e, 2,6-dichloro-4-(3-(hydroxydiphenylmethyl)-1,2,4-triazin-6-yl)phenol] |  |  | closed loop % inhibition @ 10 μg [1]: 62.1%; closed loop % inhibition @ 100 μg [1]: 74.9% |
| O=C(NCc1cccc(OC(F)(F)F)c1)c1noc(-c2cc(Br)c(O)c(Br)c2)n1 [65a, 5-(3,5-Dibromo-4-hydroxyphenyl)-N-(3-(trifluoromethoxy)benzyl)-1,2,4-oxadiazole-3-carboxamide] |  |  | pIC50 (CFTR; [2]): 5.82; inhibition in vivo at 100 µg/loop [1]: 94.6% |
| Oc1c(Br)cc(-c2cnc(OCCc3ccccc3)nn2)cc1Br [96e, 2,6-dibromo-4-(3-phenethoxy-1,2,4-triazin-6-yl)phenol] |  |  | closed loop % inhibition @ 100 μg [1]: 78.6% |
| OCCN(Cc1ccccc1)c1ccc(-c2cc(Cl)c(O)c(Cl)c2)nn1 [98f, 4-(6-(benzyl(2-hydroxyethyl)amino)pyridazin-3-yl)-2,6-dichlorophenol] |  |  | closed loop % inhibition @ 100 μg [1]: 67.0% |
| CC(C)(C)CCN(Cc1ccc(Cl)c(Cl)c1)C(=O)c1ncn(-c2cc(Cl)c(O)c(Cl)c2)n1 [107i, 1-(3,5-dichloro-4-hydroxyphenyl)-N-(3,4-dichlorobenzyl)-N-(3,3-dimethylbutyl)-1H-1,2,4-triazole-3-carboxamide] | 1.73 µM | 26.9 µM |  |
| CCN(Cc1ccc(Cl)c(Cl)c1)C(=O)c1ncn(-c2cc(Cl)c(O)c(Cl)c2)n1 [108i, 1-(3,5-dichloro-4-hydroxyphenyl)-N-(3,4-dichlorobenzyl)-N-ethyl-1H-1,2,4-triazole-3-carboxamide] | 2.99 µM | 4.08 µM |  |
| O=C(c1ncn(-c2cc(Cl)c(O)c(Cl)c2)n1)N(Cc1cccnc1)Cc1ccc(Cl)c(Cl)c1 [109i, 1-(3,5-dichloro-4-hydroxyphenyl)-N-(3,4-dichlorobenzyl)-N-(pyridin-3-ylmethyl)-1H-1,2,4-triazole-3-carboxamide] | 3.06 µM | 10.2 µM |  |
| O=C(c1ncn(-c2cc(Cl)c(O)c(Cl)c2)n1)N(Cc1cccnc1)Cc1cccc(OC(F)(F)F)c1 [110i, 1-(3,5-dichloro-4-hydroxyphenyl)-N-(pyridin-3-ylmethyl)-N-(3-(trifluoromethoxy)benzyl)-1H-1,2,4-triazole-3-carboxamide] | 4.48 µM | 7.8 µM |  |
| O=C(NCc1cc(F)cc(F)c1)c1noc(-c2cc(Cl)c(O)c(Cl)c2)n1 [112a, 5-(3,5-dichloro-4-hydroxyphenyl)-N-(3,5-difluorobenzyl)-1,2,4-oxadiazole-3-carboxamide] |  |  | pIC50 (CFTR; [2]): 4.95; inhibition in vivo at 100 µg/loop [1]: 51% |
| COCCOCCOCCOCCN(Cc1ccc(Oc2ccccc2)cc1)C(=O)c1ncn(-c2cc(Cl)c(O)c(Cl)c2)n1 [112i, 1-(3,5-dichloro-4-hydroxyphenyl)-N-(4-phenoxybenzyl)-N-(2,5,8,11-tetraoxatridecan-13-yl)-1H-1,2,4-triazole-3-carboxamide] | 12.5 µM | 26.1 µM |  |
| COCCOCCOCCN(Cc1ccc(Cl)c(Cl)c1)C(=O)c1ncn(-c2cc(Cl)c(O)c(Cl)c2)n1 [114i, 1-(3,5-dichloro-4-hydroxyphenyl)-N-(3,4-dichlorobenzyl)-N-(2-(2-(2-methoxyethoxy)ethoxy)ethyl)-1H-1,2,4-triazole-3-carboxamide] | 6.63 µM | 22.7 µM |  |
| CCN(Cc1ccccc1)c1ccc(-c2cc(Cl)c(O)c(Cl)c2)nn1 [115f, 4-(6-(benzyl(ethyl)amino)pyridazin-3-yl)-2,6-dichlorophenol] |  |  | closed loop % inhibition @ 100 μg [1]: 79.4% |
| COCCOCCOCCN(Cc1ccc(Oc2ccccc2)cc1)C(=O)c1ncn(-c2cc(Cl)c(O)c(Cl)c2)n1 [119i, 1-(3,5-dichloro-4-hydroxyphenyl)-N-(2-(2-(2-methoxyethoxy)ethoxy)ethyl)-N-(4-phenoxybenzyl)-1H-1,2,4-triazole-3-carboxamide] | 5.11 µM | 11.5 µM |  |
| O=C(NCc1cccc(OC(F)(F)F)c1)c1noc(-c2cc(Cl)c(O)c(Cl)c2O)n1 [120a, 5-(3,5-dichloro-2,4-dihydroxyphenyl)-N-(3-(trifluoromethoxy)benzyl)-1,2,4-oxadiazole-3-carboxamide] |  |  | pIC50 (CFTR; [2]): 4.91; inhibition in vivo at 100 µg/loop [1]: 62.3% |
| CON(Cc1cccc(C(F)(F)F)c1)C(=O)c1ncn(-c2cc(Cl)c(O)c(Cl)c2)n1 [124i, 1-(3,5-dichloro-4-hydroxyphenyl)-N-methoxy-N-(3-(trifluoromethyl)benzyl)-1H-1,2,4-triazole-3-carboxamide] | 8.22 µM | 6.03 µM |  |
| CON(Cc1cccc(OC(F)(F)F)c1)C(=O)c1ncn(-c2cc(Cl)c(O)c(Cl)c2)n1 [125i, 1-(3,5-dichloro-4-hydroxyphenyl)-N-methoxy-N-(3-(trifluoromethoxy)benzyl)-1H-1,2,4-triazole-3-carboxamide] | 3.44 µM | 9.67 µM |  |
| CON(Cc1ccc(Cl)c(Cl)c1)C(=O)c1ncn(-c2cc(Cl)c(O)c(Cl)c2)n1 [126i, 1-(3,5-dichloro-4-hydroxyphenyl)-N-(3,4-dichlorobenzyl)-N-methoxy-1H-1,2,4-triazole-3-carboxamide] | 2.43 µM | 2.46 µM |  |
| Oc1c(Cl)cc(-c2cnc(OCc3ccccc3F)nn2)cc1Cl [127e, 2,6-dichloro-4-(3-(2-fluorobenzyloxy)-1,2,4-triazin-6-yl)phenol] |  |  | closed loop % inhibition @ 10 μg [1]: 62.7%; closed loop % inhibition @ 100 μg [1]: 70.2% |
| CON(Cc1ccc(C(C)(C)C)cc1)C(=O)c1ncn(-c2cc(Cl)c(O)c(Cl)c2)n1 [127i, N-(4-tert-butylbenzyl)-1-(3,5-dichloro-4-hydroxyphenyl)-N-methoxy-1H-1,2,4-triazole-3-carboxamide] | 1.49 µM | 32.9 µM |  |
| CON(Cc1ccc(Oc2ccccc2)cc1)C(=O)c1ncn(-c2cc(Cl)c(O)c(Cl)c2)n1 [129i, 1-(3,5-dichloro-4-hydroxyphenyl)-N-methoxy-N-(4-phenoxybenzyl)-1H-1,2,4-triazole-3-carboxamide] | 2.61 µM | 22.5 µM |  |
| CCON(Cc1ccc(Oc2ccccc2)cc1)C(=O)c1ncn(-c2cc(Cl)c(O)c(Cl)c2)n1 [130i, 1-(3,5-dichloro-4-hydroxyphenyl)-N-ethoxy-N-(4-phenoxybenzyl)-1H-1,2,4-triazole-3-carboxamide] | 2.84 µM | 4.09 µM |  |
| O=C(c1ncn(-c2cc(Cl)c(O)c(Cl)c2)n1)N(O)Cc1ccc(Oc2ccccc2)cc1 [131i, 1-(3,5-dichloro-4-hydroxyphenyl)-N-hydroxy-N-(4-phenoxybenzyl)-1H-1,2,4-triazole-3-carboxamide] | 4.87 µM | 7.45 µM |  |
| CC(C)(C)C(=O)C(Cc1cccc(C(F)(F)F)c1)NC(=O)c1ncn(-c2cc(Cl)c(O)c(Cl)c2)n1 (stereo not shown) [132i, 1-(3,5-dichloro-4-hydroxyphenyl)-N-(4,4-dimethyl-3-oxo-1-(3-(trifluoromethyl)phenyl)pentan-2-yl)-1H-1,2,4-triazole-3-carboxamide] | 3.87 µM | 26.5 µM |  |
| CC(C)(C)C(=O)C(Cc1cccc(OC(F)(F)F)c1)NC(=O)c1ncn(-c2cc(Cl)c(O)c(Cl)c2)n1 (stereo not shown) [133i, 1-(3,5-dichloro-4-hydroxyphenyl)-N-(4,4-dimethyl-3-oxo-1-(3-(trifluoromethoxy)phenyl)pentan-2-yl)-1H-1,2,4-triazole-3-carboxamide] | 1.23 µM | 21 µM |  |
| CC(C)c1ccc(CC(NC(=O)c2ncn(-c3cc(Cl)c(O)c(Cl)c3)n2)C(=O)C(C)(C)C)cc1 (stereo not shown) [134i, 1-(3,5-dichloro-4-hydroxyphenyl)-N-(1-(4-isopropylphenyl)-4,4-dimethyl-3-oxopentan-2-yl)-1H-1,2,4-triazole-3-carboxamide] | 3.09 µM | 8.6 µM |  |
